Test: Pharmacokinetic release profile of novolimus from a stent (FIG. 35)
Assay type: in vivo

CO[C@@H]1C[C@H](C[C@@H](C)[C@@H]2CC(=O)[C@H](C)/C=C(\C)[C@@H](O)[C@@H](OC)C(=O)[C@H](C)C[C@H](C)/C=C/C=C/C=C(\C)[C@@H](O)C[C@@H]3CC[C@@H](C)[C@@](O)(O3)C(=O)C(=O)N3CCCC[C@H]3C(=O)O2)CC[C@H]1O [novolimus, 16-O-desmethyl-rapamycin]
therapeutic tissue drug concentration (at 90 days): 0.5 ng/mg | drug released (in one month, from a stent): over 85%
